In US9434743B2, “Indazole derivatives” (TAKEDA PHARMACEUTICAL COMPANY LIMITED, priority 2012, dated 2016):
Values belong to the molecule of their own block, whether it stands above or below them.

Experiments:
[1] = cited from earlier work
human MetAP2 enzyme [2] = target: T1, human MetAP2 enzyme (Homo sapiens, UniProt P50579); experiment: MetAP2 enzyme assay, enzyme complexed with cobalt ions; conditions: MetAP2 Co pIC50, MetAP2 enzyme complexed with cobalt ions; Met-AMC substrate at Km
Method: DNA encoding the full-length sequence of human MetAP2 enzyme is amplified by PCR and cloned into a pFastBac expression vector (Invitrogen). Recombinant baculovirus incorporating the MetAP2 construct is generated by transposition using the Bac-to-Bac system (Invitrogen). The expression of recombinant protein is carried out by infection of Spodoptera frugiperda Sf9 cells (Invitrogen) in 5 L Wave Bioreactors (Wave Biotech). Recombinant protein is isolated from cellular extracts by binding to an SP Hitrap Fast Flow or SP Sepharose (Sigma) column, and the protein is eluted using a NaCl gradient. Partially purified extracts of MetAP2 are further purified by an AKTA FPLC over a Superdex-200 column (GE). The purity of MetAP2 protein is determined on denaturing SDS-PAGE gel.
The results for each well are expressed as percent inhibition and calculated using the equation:

human MetAP2 enzyme [3] = target: T1, human MetAP2 enzyme; experiment: MetAP2 enzyme assay, enzyme complexed with manganese ions; conditions: MetAP2 Mn pIC50, MetAP2 enzyme complexed with manganese ions; Met-AMC substrate at Km
angiogenesis = conditions: cited from earlier work

T1 sequence (P50579 whole entry): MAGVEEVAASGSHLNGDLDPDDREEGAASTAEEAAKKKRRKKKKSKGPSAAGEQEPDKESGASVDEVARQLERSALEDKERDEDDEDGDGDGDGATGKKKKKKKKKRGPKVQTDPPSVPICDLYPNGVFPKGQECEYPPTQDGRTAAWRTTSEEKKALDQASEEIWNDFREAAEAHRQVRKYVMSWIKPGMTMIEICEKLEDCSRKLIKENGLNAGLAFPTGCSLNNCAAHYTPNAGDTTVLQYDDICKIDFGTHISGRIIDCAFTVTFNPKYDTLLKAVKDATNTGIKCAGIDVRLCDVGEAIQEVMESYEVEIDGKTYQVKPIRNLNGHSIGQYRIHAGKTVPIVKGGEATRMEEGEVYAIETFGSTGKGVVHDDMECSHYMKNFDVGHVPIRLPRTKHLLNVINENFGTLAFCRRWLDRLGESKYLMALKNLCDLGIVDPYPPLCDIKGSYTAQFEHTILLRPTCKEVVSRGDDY

Structure (SMILES): CO[C@@H]1[C@H](OC(=O)/C=C/c2ccc(OCCN(C)C)cc2)CC[C@]2(CO2)[C@H]1[C@@]1(C)O[C@@H]1CC=C(C)C [CKD-732]
food intake, body weight, fat mass, size of adipocytes ([1]; genetically and diet-induced obese mice): decrease food intake, body weight, fat mass, and the size of adipocytes

IC50 (human MetAP2 enzyme [2]): 10 nM
IC50 (human MetAP2 enzyme [3]): 7.94 nM
Structure (SMILES): Cc1nc(N2C[C@H]3C[C@H]3C2C(N)=O)ncc1-c1cc(C(F)(F)F)cc2[nH]ncc12 (stereo partly drawn) [Example 415, (1R,5S)-3-(4-methyl-5-(6-(trifluoromethyl)-1H-indazol-4-yl)pyrimidin-2-yl)-3-azabicyclo[3.1.0]hexane-2-carboxamide]

Structure (SMILES): CO[C@@H]1[C@H](OC(=O)/C=C/C=C/C=C/C=C/C(=O)O)CC[C@]2(CO2)[C@H]1[C@@]1(C)O[C@@H]1CC=C(C)C [fumagillin]
effect on diet-induced obesity ([1]; diet-induced obesity in mice): impair diet-induced obesity
inhibition of angiogenesis (angiogenesis): inhibit angiogenesis
